Our source for the melting point values is US6472391B2, “Nitrogen-containing heterocyclic compounds” (Millennium Pharmaceuticals, Inc., priority 1996, dated 2002).

Consider `COc1cc2ncnc(N3CCN(C(=S)NCc4ccc(OC(F)(F)F)cc4)CC3)c2cc1OC` [Compound 204, 4-(6,7-Dimethoxy-4-quinazolinyl)-N-(4-trifluoromethoxybenzyl)-1-piperazinethiocarboxamide], for which the melting point is 131 to 132 °C.

Compound `O=C(Nc1ccc(Oc2ccccc2)cc1)N1CCN(c2ccnc3ccc(Cl)cc23)CC1` [Compound 399, 4-(6-Chloro-4-quinolyl)-N-(4-phenoxyphenyl)-1-piperazinecarboxamide] yielded a melting point of 188 to 189 °C.

The compound `COc1cc2ncnc(N3CCN(C(=S)Nc4cccc(Cl)c4)CC3)c2cc1OC` [Compound 175, N-(3-Chlorophenyl)-4-(6,7-dimethoxy-4-quinazolinyl)-1-piperazinethiocarboxamide] gave a melting point of 222 to 224 °C.

As for `CCOc1cc2c(N3CCN(C(=S)NCc4ccccc4)CC3)ncnc2cc1OC` [Compound 348, N-Benzyl-4-(6-ethoxy-7-methoxy-4-quinazolinyl)-1-piperazinethiocarboxamide], the melting point is 170 to 171 °C.

`COc1ccc(NC(=S)N2CCN(c3ncnc4cc(OC)c(OC)cc34)CC2)cc1OC` [Compound 66, N-(3,4-Dimethoxyphenyl)-4-(6,7-dimethoxy-4-quinazolinyl)-1-piperazinethiocarboxamide] registered a melting point of 174 to 176 °C.

In turn, `COc1cc2ncnc(N3CCN(C(=O)NCCc4cccs4)CC3)c2cc1OC` [Compound 96, 4-(6,7-Dimethoxy-4-quinazolinyl)-N-[2-(2-thienyl)ethyl]-1-piperazinecarboxamide] yielded a melting point of 184 to 185 °C.

The compound `CCOC(=O)c1cnc2cc(OC)c(OC)cc2c1N1CCN(C(=S)NCc2cccnc2)CC1` [Compound 410, 4-(6,7-Dimethoxy-3-ethoxycarbonyl-4-quinolyl)-N-(3-picolyl)-1-piperazinethiocarboxamide] came in with a melting point of 92 to 94 °C.

Take `Cc1ccc2nc(C(F)(F)F)cc(N3CCN(C(=O)Nc4ccc(Oc5ccccc5)cc4)CC3)c2c1[N+](=O)[O-]` [Compound 413, 4-(6-Methyl-5-nitro-2-trifluoromethyl-4-quinolyl)-N-(4-phenoxyphenyl)-1-piperazinecarboxamide]: the melting point lay within 197 to 198 °C.

As for `COc1cc2ncnc(N3CCN(C(=S)Nc4ccc(C(F)(F)F)cc4)CC3)c2cc1OC` [Compound 159, 4-(6,7-Dimethoxy-4-quinazolinyl)-N-(4-trifluoromethylphenyl)-1-piperazinethiocarboxamide], the melting point fell in the range of 117 to 119 °C.

The compound `COc1cc2ncnc(N3CCN(C(=O)Nc4ccsc4)CC3)c2cc1OC` [Compound 257, 4-(6,7-Dimethoxy-4-quinazolinyl)-N-(3-thienyl)-1-piperazinecarboxamide] had a melting point of 239 to 241 °C.

`O=[N+]([O-])c1cc2c(N3CCN(C(=S)NCc4ccccc4)CC3)ncnc2cc1Cl` [Compound 358, N-Benzyl-4-(7-chloro-6-nitro-4-quinazolinyl)-1-piperazinethiocarboxamide]: the melting point was 93 to 95 °C.

Turning to `COc1ccc(CCNC(=S)N2CCN(c3ncnc4cc(OC)c(OC)cc34)CC2)cc1OC` [Compound 206, N-[2-(3,4-Dimethoxyphenyl)ethyl]-4-(6,7-dimethoxy-4-quinazolinyl)-1-piperazinethiocarboxamide], the melting point is 98 to 100 °C.

`COc1cc2ncnc(N3CCN(C(=S)NCc4ncc(C(F)(F)F)cc4Cl)CC3)c2cc1OC` [Compound 276, N-(3-Chloro-5-trifluoromethyl-2-picolyl)-4-(6,7-dimethoxy-4-quinazolinyl)-1-piperazinethiocarboxamide]: the melting point lay within 182 to 183 °C.

With `Cc1ccc2c(N3CCN(C(=O)Nc4ccc([N+](=O)[O-])cc4)CC3)ncnc2c1` [Compound 313, 4-(7-Methyl-4-quinazolinyl)-N-(4-nitrophenyl)-1-piperazinecarboxamide], the melting point is 251 to 254 °C.

`COc1ccc(OC)c(NC(=O)N2CCN(c3ncnc4cc(OC)c(OC)cc34)CC2)c1` [Compound 65, N-(2,5-Dimethoxyphenyl)-4-(6,7-Dimethoxy-4-quinazolinyl)-1-piperazinecarboxamide] gave a melting point of 215 to 217 °C.

For `COc1cc2ncnc(N3CCN(C(=O)Nc4cc(C)cc(C)c4)CC3)c2cc1OC` [Compound 29, 4-(6,7-Dimethoxy-4-quinazolinyl)-N-(3,5-dimethylphenyl)-1-piperazinecarboxamide], the melting point fell in the range of 223 to 226 °C.

The compound `COc1cc2ncnc(N3CCN(C(=O)Nc4cccc(C#N)c4)CC3)c2cc1OC` [Compound 84, N-(3-Cyanophenyl)-4-(6,7-dimethoxy-4-quinazolinyl)-1-piperazinecarboxamide] showed a melting point of 240 to 244 °C.

In the case of `COc1cc2ncnc(N3CCN(C(=O)Nc4ccc(S(C)(=O)=O)cc4)CC3)c2cc1OC` [Compound 251, 4-(6,7-Dimethoxy-4-quinazolinyl)-N-(4-mesylphenyl)-1-piperazinecarboxamide], the melting point was in the range of 266 to 269 °C.

In the case of `O=C(Nc1ccc(Oc2ccccc2)cc1)N1CCN(c2cc(C(F)(F)F)nc3ccccc23)CC1` [Compound 397, N-(4-Phenoxyphenyl)-4-(2-trifluoromethyl-4-quinolyl)-1-piperazinecarboxamide], the melting point lay within 203 to 204 °C.

As for `O=C(Nc1ccc(Oc2ccccc2)cc1)N1CCN(c2ccnc3cc(C(F)(F)F)ccc23)CC1` [Compound 404, N-(4-Phenoxyphenyl)-4-(7-trifluoromethyl-4-quinolyl)-1-piperazinecarboxamide], the melting point is 163 to 164 °C.

`COc1cc2ncnc(N3CCN(C(=O)Nc4ccc(C(F)(F)F)cc4)CC3)c2cc1OC` [Compound 23, 4-(6,7-Dimethoxy-4-quinazolinyl)-N-[4-(trifluoromethyl)phenyl]-1-piperazinecarboxamide]: the melting point is 227 to 230 °C.

For `O=C(Nc1ccc(Oc2ccccc2)cc1)N1CCN(c2ncnc3cc4c(cc23)OCCO4)CC1` [Compound 372, 4-(6,7-Ethylenedioxy-4-quinazolinyl)-N-(4-phenoxyphenyl)-1-piperazinecarboxamide], the melting point lay within 227 to 228 °C.

In the case of `COc1cc2ncnc(N3CCCN(C(=S)NCc4ccccc4)CC3)c2cc1OC` [Compound 436, N-Benzyl-4-(6,7-dimethoxy-4-quinazolinyl)-1-homopiperazinethiocarboxamide], the melting point fell in the range of 86 to 88 °C.

For the compound `CCOc1ccc(NC(=O)N2CCN(c3ncnc4cc(OC)c(OC)cc34)CC2)cc1` [Compound 57, 4-(6,7-Dimethoxy-4-quinazolinyl)-N-(4-ethoxyphenyl)-1-piperazinecarboxamide], the melting point lay in the range of 165 to 166 °C.

For the compound `COc1cc2ncnc(N3CCN(C(=S)NCc4cccc(F)c4)CC3)c2cc1OC` [Compound 171, 4-(6,7-Dimethoxy-4-quinazolinyl)-N-(3-fluorobenzyl)-1-piperazinethiocarboxamide], the melting point lay within 100 to 102 °C.

For `COc1cc2ncnc(N3CCN(C(=O)Nc4ccc(OC(C)=O)cc4)CC3)c2cc1OC` [Compound 216, N-(4-Acetoxyphenyl)-4-(6,7-dimethoxy-4-quinazolinyl)-1-piperazinecarboxamide], the melting point fell in the range of 197 to 199 °C.
